Results on three molecules are retold here after patent publication US20150104806A1, “Parkinson's Disease Biomarker” (University of Dundee, priority 2012, published 2015).

Test [1] deals with human PINK1. Briefly: PINK1 stabilisation, band-shift and Thr257 autophosphorylation in mitochondrial/cytoplasmic extracts of CCCP-treated Flp-In T-Rex HEK293 cells. The class given is cell-based. Here is the method: (§1) Flp-In T-Rex stable cell lines were cultured using DMEM (Dulbecco's modified Eagle's medium) supplemented with 10% FBS (Fetal Bovine Serum), 2 mM L-Glutamine, 1× Pen/Strep, 15 μg/ml of Blasticidin and 100 μg/ml of Hygromycin. Cell transfections of HA-parkin or untagged parkin were performed using the polyethyleneimine (PEI) method (Reed et al, 2006). Cultures were induced to express protein by addition of 0.1 μg/ml of Doxycycline in the medium for 24 hours. To uncouple mitochondria, cells were treated with 10 μM CCCP (Sigma) dissolved in DMSO for the indicated times. An equivalent volume of DMSO was used as a control.
Cells were lysed and fractionated by the indicated buffer and methods: Whole cell lysis using buffer: 50 mM Tris/HCl (pH 7.4), 1 mM EGTA, 1 mM EDTA, 1%(w/v) 1 mM sodium orthovanadate, 10 mM sodium β-glycerophosphate, 50 mM NaF, 5 mM sodium pyrophosphate, 0.27M sucrose, 1 mM benzamidine and 2mMPMSF and 1%(v/v) Triton X-100. Lysates were clarified by centrifugation at 13,000 rpm for 10 min at 4° C. and the supernatant was collected. Mitochondrial fractionation: cells were lysed in buffer containing 250 mM sucrose, 20 mM HEPES, 3 mM EDTA, 1%(w/v) 1 mM sodium orthovanadate, 10 mM sodium β-glycerophosphate, 50 mM NaF, 5 mM sodium pyrophosphate, pH 7.5 and protease inhibitor cocktail (Roche) at 4° C. Cells were disrupted using a glass hand held homogeniser (20 passes) and the lysate was clarified by centrifuging for 10 min at 800 g at 4° C. The supernatant was further centrifuged at 16,600 g for 10 min. The resultant supernatant served as the cytosolic fraction. The pellet containing the mitochondrial fraction was resuspended in buffer containing 1% Triton X-100 and centrifuged at 13,000 rpm for 10 min. This supernatant contained solubilized mitochondrial proteins. All lysates were snap-frozen at −80° C. until use. Protein concentration was determined using the Bradford method (Thermo Scientific) with BSA as the standard.
Immunoprecipitation of recombinant PINK1-FLAG was undertaken by standard methods with anti-FLAG agarose beads (Sigma); of HA-parkin with anti-HA agarose beads (Sigma); and of untagged parkin with anti-parkin antibody (S966C) covalently conjugated to protein G-Sepharose. Immunoprecipitates, as well as cell lysates in SDS sample buffer were subjected to SDS-PAGE and transferred to PVDF membranes. For immunoblotting, membranes were incubated for 60 mins with 1% TBST containing either 5% (wt/vol) skimmed milk powder (for total antibodies) or 5% (wt/vol) BSA (for phospho-specific antibodies). The antibodies were then incubated in the same buffer overnight at 4° C. with the indicated primary antibodies. Sheep total and phospho-specific antibodies were used at a concentration of 1 μg/ml, whereas commercial antibodies were diluted 1000-fold. The incubation with phospho-specific sheep antibodies was performed with the addition of 10 μg/ml of the dephosphopeptide antigen used to raise the antibody. Blots were washed with 0.1% TBST and incubated with secondary HRP-conjugated antibodies in 5% skimmed milk for 60 mins. After repeated washes, the signal was detected with the enhanced chemiluminescence and the X-ray films were processed in a Konica Minolta Medical SRX-101 film processor.
10 mg of mitochondrial extract from Flp-In T-Rex HEK 293 cell lines stably PINK1-FLAG were subjected to immunoprecipitation with anti-FLAG-agarose and then eluted in LDS sample buffer. […]

Test [2] has as its system human PINK1. Briefly: Immunoprecipitation kinase assay of mitochondrial PINK1-FLAG from CCCP-treated HEK293 cells with GST-parkin Ubl (1-108) substrate. The class given is cell-based. Here is the method:
(§2) In assays utilising E. coli expressed wild-type or kinase dead (D359A) MBP-TcPINK1, reactions were set up in a volume of 40 μl, with substrates at 1 μg and kinase at 0.5 μg in 50mMTris-HCl (pH 7.5), 0.1 mM EGTA, 10 mM MgCl2, 2 mM dithiothreitol (DTT) and 0.1 mM [γ-^32P] ATP (approximately 500 cpm/pmol). Assays were incubated at 30° C. with shaking at 1200 rpm and terminated after the indicated time by addition of SDS sample buffer. In mammalian HEK293 immunoprecipitation kinase assays, C-terminal-FLAG tagged wild-type or kinase dead (D384A) PINK1 was immunoprecipitated from 5 mg of mitochondrial enriched extracts using anti-FLAG agarose beads and activity measured in a reaction volume of 40 μl consisting of 50 mM Tris-HCl (pH 7.5), 0.1 mM EGTA, 10 mM MgCl2, 2 mM DTT, 0.1 mM [γ-^32P] ATP (2000cpm/pmol) and 5 μg of indicated substrate. Assays were incubated at 30° C. with shaking at 1200 rpm and terminated after 30 min by addition of SDS sample buffer. For all assays, reaction mixtures were resolved by SDS-PAGE. Proteins were detected by Coomassie staining and gels were imaged using an Epson scanner and dried completely using a gel dryer (Bio-Rad). Incorporation of [γ-32P] ATP into substrates was analysed by autoradiography using Amersham Hyper-Film ECL.

The test system of test [3] is human PINK1. As to the kind of experiment: Parkin Ser65 phosphorylation in Flp-In T-Rex HEK293 cells expressing PINK1-FLAG after CCCP stimulation. The class given is cell-based. As for the experimental part:
as §1
Cells were lysed and fractionated by the indicated buffer and methods: Whole cell lysis using buffer: 50 mM Tris/HCl (pH 7.4), 1 mM EGTA, 1 mM EDTA, 1%(w/v) 1 mM sodium orthovanadate, 10 mM sodium β-glycerophosphate, 50 mM NaF, 5 mM sodium pyrophosphate, 0.27M sucrose, 1 mM benzamidine and 2mMPMSF and 1%(v/v) Triton X-100. Lysates were clarified by centrifugation at 13,000 rpm for 10 min at 4° C. and the supernatant was collected. […] Protein concentration was determined using the Bradford method (Thermo Scientific) with BSA as the standard. […]

The target of another test is T1, PINK1 (Homo sapiens, UniProt Q9BXM7).
T1 construct: expressed in transfected cells; host or cells: Flp-In T-Rex HEK293; anti-FLAG immunoprecipitate of mitochondrial enriched extract
T1 sequence (Q9BXM7 whole entry): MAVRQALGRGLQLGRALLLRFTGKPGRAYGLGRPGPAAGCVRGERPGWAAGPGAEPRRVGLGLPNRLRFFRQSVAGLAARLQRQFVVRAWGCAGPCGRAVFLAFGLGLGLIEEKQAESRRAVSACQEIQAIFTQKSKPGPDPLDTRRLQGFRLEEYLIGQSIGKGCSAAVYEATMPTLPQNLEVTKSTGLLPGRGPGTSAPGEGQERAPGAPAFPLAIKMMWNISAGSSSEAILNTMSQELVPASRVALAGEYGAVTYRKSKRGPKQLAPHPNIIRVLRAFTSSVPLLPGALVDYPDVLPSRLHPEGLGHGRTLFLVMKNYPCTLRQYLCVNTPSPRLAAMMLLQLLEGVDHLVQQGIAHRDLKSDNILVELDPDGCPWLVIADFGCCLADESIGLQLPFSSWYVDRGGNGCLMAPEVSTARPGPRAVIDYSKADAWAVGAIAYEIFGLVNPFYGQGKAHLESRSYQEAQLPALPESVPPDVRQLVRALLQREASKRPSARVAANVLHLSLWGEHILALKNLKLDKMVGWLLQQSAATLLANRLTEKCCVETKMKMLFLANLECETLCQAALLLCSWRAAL
As to the kind of experiment: Lambda phosphatase assay of immunoprecipitated PINK1 followed by in vitro kinase assay. The class given is biochemical. The settings on record: 50 mM EDTA with 1000U lambda phosphatase. Here is the method: Wild-type PINK1 was incubated with or without 1000U of Lambda phosphatase (NEB) in a reaction volume of 40 μl consisting of 50 mM Tris pH 7.5, 1 mM MnCl2 and 2 mM DTT. In addition wild-type PINK1 was treated with 1000U of lambda phosphatase in the presence of 50 mM EDTA. Assays were incubated at 30° C. for 30 min with shaking at 1200 rpm. The beads were washed three times in 50 mM Tris pH7.5, 0.1 mM EGTA and then utilized in an in vitro kinase assay with GST-parkin UBL (1-108) as the substrate. Samples were further analyzed as described above.

The target of another test is T2, TcPINK1 (Tribolium castaneum, UniProt D6WMX4).
T2 construct: full-length MBP-fusion of wild type TcPINK1 (1-570); made in house; host or cells: E. coli BL21 Codon+
T2 sequence (D6WMX4 1-570): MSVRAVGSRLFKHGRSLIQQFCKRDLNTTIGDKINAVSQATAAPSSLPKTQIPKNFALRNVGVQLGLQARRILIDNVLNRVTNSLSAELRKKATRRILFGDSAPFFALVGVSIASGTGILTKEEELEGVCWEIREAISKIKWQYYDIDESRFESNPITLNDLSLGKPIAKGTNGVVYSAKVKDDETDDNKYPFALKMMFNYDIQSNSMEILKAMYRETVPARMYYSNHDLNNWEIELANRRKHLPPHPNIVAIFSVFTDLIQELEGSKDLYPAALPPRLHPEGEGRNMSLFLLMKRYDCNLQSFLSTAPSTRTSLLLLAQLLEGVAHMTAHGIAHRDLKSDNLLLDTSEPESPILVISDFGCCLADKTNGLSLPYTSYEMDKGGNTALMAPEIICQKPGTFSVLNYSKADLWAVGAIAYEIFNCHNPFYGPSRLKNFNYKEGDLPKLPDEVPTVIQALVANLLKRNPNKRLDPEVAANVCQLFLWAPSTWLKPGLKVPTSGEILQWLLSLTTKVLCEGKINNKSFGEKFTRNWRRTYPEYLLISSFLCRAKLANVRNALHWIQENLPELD
As to the kind of experiment: In vitro phosphorylation of substrates by TcPINK1. The class given is biochemical, insect. The settings on record: time course, GST-parkin, [γ-32P] ATP. Here is the method:
as §2

For `N#CC(C#N)=NNc1cccc(Cl)c1` [CCCP, carbonyl cyanide m-chlorophenyl hydrazone], the “levels of full-length PINK1 associated with the mitochondria” value with human PINK1 [1] (3 hour CCCP treatment) is on record as “marked increase”. Moreover, the “phosphorylation of PINK1 at Thr257” value in the test on human PINK1 [1] (CCCP 3 hours, wild type but not kinase-inactive PINK1, phosphospecific Thr257 antibody) is listed as “markedly stimulated”. In the test on human PINK1 [1] (CCCP time course, cytoplasmic extracts), the “time to loss of the cleaved form of PINK1 in the cytosol” value is on record as no more than 5 min. In the test with human PINK1 [1] (CCCP time course, mitochondrial extracts), the “time to significant stabilisation of full-length PINK1 at the mitochondria” value is on record as no more than 5 min. Besides, the “time to maximal stabilisation of full-length PINK1 at the mitochondria” value with human PINK1 [1] (CCCP time course, mitochondrial extracts, sustained for up to 3 hours) is on record as no more than 40 min. In the test with human PINK1 [2] (CCCP time course), the “time of PINK1 activation (immunoprecipitated mitochondrial PINK1 phosphorylating parkin in vitro)” value is “around 40 mins” and the “time of maximal PINK1 activation (immunoprecipitated mitochondrial PINK1 phosphorylating parkin in vitro)” value came out at 3 h. The “activation of human PINK1 (ability to phosphorylate parkin Ubl domain at Ser65 in vitro)” value with human PINK1 [2] (PINK1 isolated from CCCP-treated vs non-treated cells) is listed as “inducing the activation”. For the same molecule, the “time at which parkin Ser65 phosphorylation occurs” value in the test on human PINK1 [3] (10 μM CCCP time course, phospho-Ser65 antibody) is 5 min. Also, the “parkin phosphorylation at Ser65” value in the test with human PINK1 [3] (10 μM CCCP, 3 hours, HEK293 cells expressing human wild-type PINK1, phospho-specific antibody) is listed as “induced”.
In the case of `O=C(O)CN(CCN(CC(=O)O)CC(=O)O)CC(=O)O` [EDTA], on PINK1, the “effect on lambda phosphatase-induced dephosphorylation of Thr257 and loss of ability of PINK1 to phosphorylate parkin” value is “prevented”.

B1: parkin: human parkin protein expressed in E. coli, substrate of TcPINK1 (protein, UniProt O60260 1-465, looked up)
E3 ubiquitin-protein ligase …: MIVFVRFNSSHGFPVEVDSDTSIFQLKEVVAKRQGVPADQLRVIFAGKELRNDWTVQNCDLDQQSIVHIVQRPWRKGQEMNATGGDDPRNAAGGCEREPQSLTRVDLSSSVLPGDSVGLAVILHTDSRKDSPPAGSPAGRSIYNSFYVYCKGPCQRVQPGKLRVQCSTCRQATLTLTQGPSCWDDVLIPNRMSGECQSPHCPGTSAEFFFKCGAHPTSDKETSVALHLIATNSRNITCITCTDVRSPVLVFQCNSRHVICLDCFHLYCVTRLNDRQFVHDPQLGYSLPCVAGCPNSLIKELHHFRILGEEQYNRYQQYGAEECVLQMGGVLCPRPGCGAGLLPEPDQRKVTCEGGNGLGCGFAFCRECKEAYHEGECSAVFEASGTTTQAYRVDERAAEQARWEAASKETIKKTTKPCPRCHVPVEKNGGCMHMKCPQPQCRLEWCWNCGCEWNRVCMGDHWFDV
modifications: GST tag
notes: human parkin protein expressed in E. coli, substrate of TcPINK1
In the case of B1, the “maximal stoichiometry of phosphorylation by TcPINK1” value with TcPINK1 is on record as −0.25 moles of 32P-phosphate per mol.
